EP4810061A1, “DEUTERATED CAMPTOTHECIN COMPOUND, AND PREPARATION AND USE THEREOF” (Shanghai Qilu Pharmaceutical Research and Development …, priority 2023, dated 2025)

Columns and labels:
[1] = In vitro plasma stability of payload compounds; assay type: in vitro ADME, Human; settings: 5 µM, 37°C
Description: (§1) 398 µL of plasma was taken and preheated to 37°C, then co-incubated for 15 minutes. 2 µL of the sample solution was added to the plasma to prepare a final sample concentration of 5 µM. The above solution was co-incubated at 37°C, and 50 µL aliquots were taken at 0, 15, 30, 60, and 120 minutes, followed by the addition of 450 µL of ice-cold acetonitrile (containing the internal standard). The solution was vortexed for 10 minutes, centrifuged, and the remaining content of the parent substrate was detected by the LC-MS/MS method. For specific results, refer to Table 4-1. Table 4-1. Plasma stability of the payload compounds of the present disclosure

[2] = In vitro plasma stability of payload compounds; assay type: in vitro ADME, CD1 mouse; settings: 5 µM, 37°C
Description: as §1

[3] = Repeated dose toxicity experiment of payload compounds in rats; assay type: in vivo, SD rats; settings: for Body weight and food consumption: 0.3 mg/kg and 1.0 mg/kg, 7 consecutive days; for animals showed immediate ataxia after administration / rats died during recovery (of the animals with ataxia): tail vein injection for 7 consecutive days; for animals showed immediate ataxia after administration: main experimental group + TK group
Description: Test sample preparation: The test sample was weighed according to the predetermined weight into a glass vial. First, 1 mL of DMSO was added and mixed until the test sample was dissolved, followed by the addition of 1 mL of Solutol HS-15. After mixing thoroughly, 8 mL of sodium chloride injection was added and vortex-mixed to obtain a clear and transparent solution.
SD rats (purchased from Beijing Vital River) were used as test animals. […] During the acclimation period, one cage-side observation was conducted daily; during the dosing period, all animals were subjected to clinical observations twice daily (morning and afternoon). Reactions in various aspects, including the skin, fur, eyes (sclera), ears, nose, oral cavity, chest, abdomen, urogenital area, limbs, as well as respiration, movement, urination, defecation (including urine and feces color), and behavioral changes, were recorded. Daily weight data of the main test group animals were documented. For animals scheduled for dissection, terminal body weight (fasted) was measured prior to dissection. The food intake of the test animals was also recorded. Table 6-1. Results of repeated dose toxicity experiments of the payload compounds of the present disclosure in rats
At the end of the administration, gross dissection was performed on D8 after the administration.

| SMILES | Residual content of parent payload at 120 minutes (relative to 0 minutes) Human plasma [1] | Residual content of parent payload at 120 minutes (relative to 0 minutes) CD1 mouse plasma [2] | Body weight and food consumption [3] | animals showed immediate ataxia after administration ([3]; 0.3 mpk dose group) | animals showed immediate ataxia after administration ([3]; 1 mpk dose group) | average food consumption ([3]; ♀ rats, at the same dose, versus control (Dxd) group) | rats died during recovery (of the animals with ataxia) ([3]; 0.3 mpk dose group) | rats died during recovery (of the animals with ataxia) ([3]; 1 mpk dose group) |
| --- | --- | --- | --- | --- | --- | --- | --- | --- |
| [2H]C1([2H])OC(=O)[C@](O)(CC)c2cc3n(c(=O)c21)Cc1c-3nc2cc(F)c(C)c3c2c1[C@@H](NC(=O)[C@H](O)C1CC1)CC3 [Compound 3] | 105.54% | 104.97% | – | – | – | – | – | – |
| [2H]C1([2H])OC(=O)[C@](O)(CC)c2cc3n(c(=O)c21)Cc1c-3nc2cc(F)c(C)c3c2c1[C@@H](NC(=O)CO)CC3 [Compound 2] | 111.04% | 102.54% | At the same dose, the effects of compound 2 and Dxd on rat body weight and food consumption were essentially comparable; | compound 2: 0.3 mpk dose group: 13% (2/16) of animals showed immediate ataxia after administration, followed by gradual recovery; | compound 2: 1 mpk dose group: 25% (4/16) of animals showed immediate ataxia after administration, followed by gradual recovery; | for ♀ rats, at the same dose, the average food consumption of the compound 2 group was higher than that of the control group; | – | – |
| [2H]C1([2H])OC(=O)[C@](O)(CC)c2cc3n(c(=O)c21)Cc1c-3nc2cc(F)c(C)c3c2c1[C@@H](NC(=O)C[C@H](C)O)CC3 [Compound 6] | 94.89% | 105.93% | – | – | – | – | – | – |
| CC[C@@]1(O)C(=O)OCc2c1cc1n(c2=O)Cc2c-1nc1cc(F)c(C)c3c1c2[C@@H](NC(=O)CO)CC3 [Dxd] | 87.57% | 95.42% | Slow/decreased body weight gain; decreased food consumption; | 31% | 31% | – | 40% | 40% |
| [2H]C1([2H])OC(=O)[C@](O)(CC)c2cc3n(c(=O)c21)Cc1c-3nc2cc(F)c(C)c3c2c1[C@@H](NC(=O)C[C@@H](C)O)CC3 [Compound 5] | 107.73% | 96.02% | – | – | – | – | – | – |
